According to patent publication US20140329863A1 (priority 2011, published 2014):
Read-outs that look alike come from different tables or passages of the source.

Assays:
[1] = system: PrP^Sc in dividing ScN2a-cl3 cells; format: cell-based, mouse; conditions: for Inhibition of Baseline PrP^5c (%) Dividing Cells ELISA: SPC assay
[2] = system: PrP^Sc in nondividing ScN2a-cl3 cells; format: cell-based, mouse; conditions: SPC assay, nondividing cells

Row | Molecule | Inhibition of Baseline PrP^5c (%) Dividing Cells ELISA ([1]; dividing cells) [%] | Inhibition of Baseline PrP^5c (%) Non-dividing Cells ELISA [2] [%] | Dividing Cells V (cell viability percentages) (N2a-cl3 cells) [%] | Non-dividing Cells V (cell viability percentages) (N2a-cl3 cells) [%] | EC50 ([1]; read-out: Antiprion activity EC50, thienopyridine analogs) [µM] | EC50 ([1]; FDA-approved drugs, ScN2a-c13 assay, dividing cells, read-out: Potency (μM) ELISA (EC50)) [µM] | Potency (μM) Cell Viability (N2a-cl3 cells) [µM] | Potency Cell Viability, mg/L (N2a-cl3 cells)
1 | CC(=O)c1ccc(N2CCN(Cc3cccc(Br)c3)CC2)cc1 [IND-7046] | 67 | 39 | 14 | 2 |  |  |  | 
2 | CC(=O)c1ccc(N2CCN(Cc3ccc(Br)s3)CC2)cc1 [IND-7190] | 97 | 34 | 8 | 12 |  |  |  | 
3 | CC(=O)c1ccc(N2CCN(Cc3cccc(Cl)c3)CC2)cc1 [IND-7486] | 84 | 31 | 6 | 12 |  |  |  | 
4 | O=C(Nc1ccc(F)c(Cl)c1)Nc1ccc(Cl)c(Cl)c1 [IND-8255] | 92 | 61 | 2 | 11 |  |  |  | 
5 | O=C(Nc1ccccc1)Nc1ccc(F)c(Cl)c1 [IND-8314] | 87 | 56 | 7 | 17 |  |  |  | 
6 | CNCCc1c(-c2ccccc2)n(-c2ccccc2)c2ccccc12 [IND-10094] | 81 | 46 | 19 | 21 |  |  |  | 
7 | O=C(Nc1ccc(Cl)c(Cl)c1)NC(CC(=O)c1ccc([N+](=O)[O-])cc1)C(Cl)(Cl)Cl (centres unmarked) [IND-10851] | 83 | 61 | 15 | 19 |  |  |  | 
8 | COc1cc(CN2CCN(c3cccc(C)c3C)CC2)cc(Br)c1O [IND-15461] | 22 | 48 |  | 3 |  |  |  | 
9 | Cc1ccc2c(c1)c1c(n2CC(O)CO)C(=O)CCC1 (centres unmarked) [IND-15474] | 14 | 39 | 11 | 9 |  |  |  | 
10 | COc1ccc(CN2CCN(c3ccc(C(C)=O)cc3)CC2)c(C)c1C [IND-17848] | 95 | 41 | 1 | 24 |  |  |  | 
11 | CC(=O)c1ccc(N2CCN(CC(C)CCC=C(C)C)CC2)cc1 (centres unmarked) [IND-18721] | 78 | 55 |  | 10 |  |  |  | 
12 | CC(=O)c1ccc(N2CCN(Cc3ccc(F)cc3F)CC2)cc1 [IND-18785] | 85 | 30 | 30 | 20 |  |  |  | 
13 | CC(=O)c1ccc(N2CCN(Cc3ccccc3Cl)CC2)cc1 [IND-19130] | 86 | 41 | 5 | 2 |  |  |  | 
14 | O=C(Nc1ccc(Cl)cc1)Nc1ccc(Cl)c(F)c1 [IND-19237] | 25 | 66 | 2 | 26 |  |  |  | 
15 | O=C(Nc1ccc(Cl)cc1)Nc1ccc(C(F)(F)F)cc1Cl [IND-19238] | 17 | 63 |  | 9 |  |  |  | 
16 | CC(=O)c1ccc(N2CCN(Cc3c(C)n(C)n(-c4ccccc4)c3=O)CC2)cc1 [IND-19672] | 64 | 35 |  |  |  |  |  | 
17 | Clc1ccc(N2CCN(C3CCSC3)CC2)cc1 (centres unmarked) [IND-19847] | 42 | 51 |  | 3 |  |  |  | 
18 | COc1ccc2[nH]c3c(OC)ncnc3c2c1 [IND-22103] | 81 | 37 |  |  |  |  |  | 
19 | Nc1c(C(=O)Nc2cc(F)ccc2F)sc2nc(-c3ccncc3)ccc12 [IND-0024575] |  |  |  |  | 3.49 |  |  | 
20 | COc1ccc2cc1Oc1ccc(cc1)C[C@H]1c3cc(c(OC)cc3CCN1C)Oc1c(OC)c(OC)cc3c1[C@H](C2)N(C)CC3 [Tetrandine] |  |  |  |  |  | 2.15 | 5.009 | 
21 | Enoxaparin |  |  |  |  |  |  |  | >10 (mg/L)
